Assay results as given in patent US11414425B2 (priority 2018, dated 2022).
Like-named read-outs stand apart in the source and are kept apart here.

Assays:
aged-impaired (AI) rats [1] = assay: Morris water maze behavioral task; format: in vivo, rat; conditions: 100 μg ICV
From the text: Another cognitive test that may be used to assess the effects of a test compound on the cognitive impairment of a CNS disorder model animal is the Morris water maze. A water maze is a pool surrounded with a novel set of patterns relative to the maze. […] The subject is trained to locate a submerged escape platform hidden underneath the surface of the pool. During the training trial, a subject is released in the maze (pool) from random starting positions around the perimeter of the pool. The starting position varies from trial to trial. […] After a delay period following the last training trial, a retention test in the absence of the escape platform is given to assess spatial memory. The subject's level of preference for the location of the (now absent) escape platform, as measured by, e.g., the time spent in that location or the number of crossings of that location made by the mouse, indicates better spatial memory, i.e., treatment of cognitive impairment. The preference for the location of the escape platform under different treatment conditions, can then be compared for efficacy of the test compound in treating cognitive impairment associated with CNS disorders.
The effects of 6,6 dimethyl-3-(3-hydroxypropyl)thio-1-(thiazol-2-yl)-6,7-dihydro-2-benzothiophen-4(5H)-one on the in vivo spatial memory retention of aged-impaired (AI) rats were assessed in a Morris water maze behavioral task. A water maze is a pool surrounded with a novel set of patterns relative to the maze.
Cognitively impaired aged rats were implanted unilaterally with a cannula into the lateral ventricle. Stereotaxic coordinates were 1.0 mm posterior to bregma, 1.5 mm lateral to midline, and 3.5 mm ventral to the skull surface. After about a week of recovery, the rats were pre-trained in a water maze for 2 days (6 trials per day) to locate a submerged escape platform hidden underneath the surface of the pool, in which the escape platform location varied from day to day. No intracerebroventricular (ICV) infusion was given during pre-training.
After pre-training, rats received ICV infusion of either 100 μg 6,6 dimethyl-3-(3-hydroxypropyl)thio-1-(thiazol-2-yl)-6,7-dihydro-2-benzothiophen-4(5H)-one (n=6) in 5 μl DMSO or vehicle DMSO (n=5) 40 min prior to water maze training and testing. Training consisted of 8 trials per day for 2 days where the hidden escape platform remained in the same location. Rats were given 60 seconds to locate the platform with a 60 seconds inter-trial interval. The rats were given a probe test (120 seconds) 24 hr. after the end of training where the escape platform was removed. During the training, there were 4 blocks, where each block had 4 training trials.
During a test trial 24 hr. after training, the escape platform was removed. […]

aged-impaired (AI) rats [2] = assay: Radial Arm Maze (RAM) behavioral task, spatial memory retention; format: in vivo, rat
From the text: A Radial Arm Maze (RAM) behavioral task is one example of a cognitive test, specifically testing spacial memory (Chappell et al. Neuropharmacology 37: 481-487, 1998). The RAM apparatus consists of, e.g., eight equidistantly spaced arms. A maze arm projects from each facet of a center platform. A food well is located at the distal end of each arm. Food is used as a reward. Blocks can be positioned to prevent entry to any arm. Numerous extra maze cues surrounding the apparatus may also be provided. After habituation and training phases, spatial memory of the subjects may be tested in the RAM under control or test compound-treated conditions. As a part of the test, subjects are pretreated before trials with a vehicle control or one of a range of dosages of the test compound. At the beginning of each trial, a subset of the arms of the eight-arm maze is blocked. Subjects are allowed to obtain food on the unblocked arms to which access is permitted during this initial “information phase” of the trial. Subjects are then removed from the maze for a delay period, e.g., a 60 second delay, a 15 minute delay, a one-hour delay, a two-hour delay, a six hour delay, a 24 hour delay, or longer) between the information phase and the subsequent “retention test,” during which the barriers on the maze are removed, thus allowing access to all eight arms. […] The identity and configuration of the blocked arms vary across trials. The number of “errors” the subjects make during the retention test phase is tracked. An error occurs in the trial if the subjects entered an arm from which food had already been retrieved in the pre-delay component of the trial, or if it re-visits an arm in the post-delay session that had already been visited. A fewer number of errors would indicate better spatial memory. The number of errors made by the test subject, under various test compound treatment regimes, can then be compared for efficacy of the test compound in treating cognitive impairment associated with CNS disorders.
The effects of methyl 3,5-diphenylpyridazine-4-carboxylate on the in vivo spatial memory retention of aged-impaired (AI) rats were assessed in a Radial Arm Maze (RAM) behavioral task using vehicle control and four different dosage levels of methyl 3,5-diphenylpyridazine-4-carboxylate (0.1 mg/kg, 0.3 mg/kg, 1 mg/kg and 3 mg/kg, ip). RAM behavioral tasks were performed on eight AI rats. All five treatment conditions (vehicle and four dosage levels) were tested on all eight rats.
The RAM apparatus used consisted of eight equidistantly-spaced arms. An elevated maze arm (7 cm width×75 cm length) projected from each facet of an octagonal center platform (30 cm diameter, 51.5 cm height). Clear side walls on the arms were 10 cm high and were angled at 65° to form a trough. […]

GABAAα5 receptor = molecular target: T1, GABAAα5 receptor (Rattus norvegicus, UniProt P18508+P19969); assay: in vivo; format: in vivo, Long Evans rats
T1 construct: occupancy in the hippocampus (a region of high GABAAα5 receptor density); from tissue; host or cells: rat brain in vivo: hippocampus versus cerebellum
From the text: (§1) Food and water were available ad libitum.

[3] = format: in vivo, Long Evans rats; conditions: i.v.
Description: as §1
For plasma exposures, blood samples were centrifuged at 14000 rpm for 16 minutes. After centrifuging, 50 ul of supernatant (plasma) from each sample was added to 200 μl of acetonitrile plus 0.1% formic acid. […] Samples were sonicated for 5 minutes in an ultrasonic water bath, followed by centrifugation for 30 minutes, at 16000 RPM. 100 ul of supernatant was removed from each sample vial and placed in a new glass auto sample vial, followed by the addition of 300 μl of sterile water (pH 6.5).
Additional studies were conducted in aged Long-Evans rats in order to determine the exposures at the behaviorally relevant doses in the cognition studies. Exposure in young Long-Evans rats was also determined to bridge with the receptor occupancy studies that were conducted in young Long-Evans rats. Exposures in young and aged Long-Evans rats were relatively similar (Table 4, FIG. 4).

α5-containing GABAAR = α5-containing GABAAR (Homo sapiens, UniProt P18507+P31644); conditions: (EC20); cited from earlier work
MAM-treated rats = conditions: cited from earlier work
[4] = probe test 24 hr. after training
[5] = tracer 1 μg/kg, i.v., after vehicle

T1 sequence (P19969 32-464): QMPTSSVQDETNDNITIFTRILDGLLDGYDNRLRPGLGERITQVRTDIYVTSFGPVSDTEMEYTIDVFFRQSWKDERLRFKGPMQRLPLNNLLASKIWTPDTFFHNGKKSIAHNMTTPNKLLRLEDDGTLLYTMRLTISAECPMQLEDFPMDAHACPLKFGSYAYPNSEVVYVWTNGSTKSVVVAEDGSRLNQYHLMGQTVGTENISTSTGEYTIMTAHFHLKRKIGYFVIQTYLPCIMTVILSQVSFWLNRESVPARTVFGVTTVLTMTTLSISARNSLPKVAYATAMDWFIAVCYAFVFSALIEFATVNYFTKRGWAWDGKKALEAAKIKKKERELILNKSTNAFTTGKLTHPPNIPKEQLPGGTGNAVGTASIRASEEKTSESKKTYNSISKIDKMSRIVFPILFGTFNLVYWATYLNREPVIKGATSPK
T1 sequence (P18508 39-466): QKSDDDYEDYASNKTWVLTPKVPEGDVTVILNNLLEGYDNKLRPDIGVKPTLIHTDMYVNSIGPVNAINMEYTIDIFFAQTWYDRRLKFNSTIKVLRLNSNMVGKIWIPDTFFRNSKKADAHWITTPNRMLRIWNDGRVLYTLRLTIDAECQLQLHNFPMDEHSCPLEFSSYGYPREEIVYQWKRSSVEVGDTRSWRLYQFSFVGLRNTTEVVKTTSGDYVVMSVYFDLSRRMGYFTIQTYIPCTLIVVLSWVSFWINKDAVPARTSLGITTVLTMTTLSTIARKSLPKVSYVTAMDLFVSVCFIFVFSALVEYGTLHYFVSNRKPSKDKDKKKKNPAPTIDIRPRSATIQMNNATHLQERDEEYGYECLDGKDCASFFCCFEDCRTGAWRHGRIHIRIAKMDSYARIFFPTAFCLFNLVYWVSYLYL
α5-containing GABAAR, sequence (P31644 32-462): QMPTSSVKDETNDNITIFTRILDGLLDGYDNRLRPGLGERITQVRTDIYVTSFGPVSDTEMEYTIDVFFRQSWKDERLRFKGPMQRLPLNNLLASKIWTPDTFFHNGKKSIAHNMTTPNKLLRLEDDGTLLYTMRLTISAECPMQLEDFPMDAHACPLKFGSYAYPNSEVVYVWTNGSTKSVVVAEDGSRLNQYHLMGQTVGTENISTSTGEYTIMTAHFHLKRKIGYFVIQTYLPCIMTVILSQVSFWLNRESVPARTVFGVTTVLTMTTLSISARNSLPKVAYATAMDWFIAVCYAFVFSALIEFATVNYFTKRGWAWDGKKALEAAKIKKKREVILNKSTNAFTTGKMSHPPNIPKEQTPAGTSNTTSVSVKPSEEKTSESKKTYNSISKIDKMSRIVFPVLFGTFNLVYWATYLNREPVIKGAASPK
α5-containing GABAAR, sequence (P18507 40-475): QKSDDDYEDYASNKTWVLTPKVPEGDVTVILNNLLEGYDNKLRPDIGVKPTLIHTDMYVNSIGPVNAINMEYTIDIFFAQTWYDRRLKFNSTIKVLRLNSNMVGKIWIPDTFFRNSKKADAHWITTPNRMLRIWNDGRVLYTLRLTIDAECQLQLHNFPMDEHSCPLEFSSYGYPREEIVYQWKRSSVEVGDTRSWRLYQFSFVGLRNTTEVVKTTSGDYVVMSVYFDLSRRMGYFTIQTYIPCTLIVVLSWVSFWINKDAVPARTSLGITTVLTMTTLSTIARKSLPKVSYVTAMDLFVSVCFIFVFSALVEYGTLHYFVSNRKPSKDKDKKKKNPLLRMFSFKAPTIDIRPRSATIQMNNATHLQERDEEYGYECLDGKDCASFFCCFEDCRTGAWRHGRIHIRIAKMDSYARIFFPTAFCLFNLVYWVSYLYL
α5-containing GABAAR, sequence (P28472 26-473, further chain): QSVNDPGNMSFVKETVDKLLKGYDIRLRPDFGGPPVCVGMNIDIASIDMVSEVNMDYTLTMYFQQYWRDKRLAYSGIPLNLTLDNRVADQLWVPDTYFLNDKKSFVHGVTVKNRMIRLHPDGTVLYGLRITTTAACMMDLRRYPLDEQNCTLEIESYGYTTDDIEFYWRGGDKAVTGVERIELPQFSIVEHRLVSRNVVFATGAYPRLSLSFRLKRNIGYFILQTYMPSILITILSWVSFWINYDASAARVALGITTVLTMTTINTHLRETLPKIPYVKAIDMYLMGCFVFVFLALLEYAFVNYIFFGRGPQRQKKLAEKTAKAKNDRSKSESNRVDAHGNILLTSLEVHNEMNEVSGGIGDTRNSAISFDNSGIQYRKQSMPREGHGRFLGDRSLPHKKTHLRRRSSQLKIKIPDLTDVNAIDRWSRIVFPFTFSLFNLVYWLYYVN

Compound: CC1(C)CC(=O)c2c(SCCCO)sc(-c3nccs3)c2C1 [6,6 dimethyl-3-(3-hydroxypropyl)thio-1-(thiazol-2-yl)-6,7-dihydro-2-benzothiophen-4(5H)-one]
- time to find the escape platform (aged-impaired (AI) rats [1]; block 1 of training): about 24 seconds
- time to find the escape platform (aged-impaired (AI) rats [1]; block 4 of training): about 9.6 seconds
- number of crossings of target annulus vs opposite annulus (aged-impaired (AI) rats [1]; [4]): crossed the “target annulus” more often
- time in target annulus vs opposite annulus (aged-impaired (AI) rats [1]; [4]): spent significantly more time in the target annulus

Compound: COC(=O)c1c(-c2ccccc2)cnnc1-c1ccccc1 [Methyl 3,5-diphenylpyridazine-4-carboxylate, reference compound]
- memory performance relative to vehicle control treatment (aged-impaired (AI) rats [2]; 3 mg/kg ip, two-hour delay RAM, t(7)=4.233, p=0.004): significantly improved memory performance
- average no. of errors ± standard error of the mean (SEM), retention test (aged-impaired (AI) rats [2]; 3 mg/kg ip, two-hour delay, AI rats): 1.31±0.40
- GABAA α5 receptors occupied (GABAAα5 receptor; at exposures behaviorally active in aged-impaired rats, hippocampus): about 32%
- receptor occupancy ED50, ratio method (GABAAα5 receptor; i.v., hippocampus/cerebellum ratio): 1.8 mg/kg
- receptor occupancy at 10 mg/kg (GABAAα5 receptor; rat, iv, 10 mg/kg, i.v., read-out: GABAA α5 receptor occupancy): > 90%
- increase in hippocampal exposure ([3]; dose from 0.1 to 1 mg/kg): 12 fold
- increase in hippocampal exposure ([3]; dose from 1 to 10 mg/kg): ~5 fold
- increase in plasma exposure ([3]; dose from 1 to 10 mg/kg): 12 fold
- α5 in vitro efficacy (α5-containing GABAAR): +27

Compound: C#Cc1ccc2c(c1)C(c1ccccc1F)=N[C@H](C)c1c(C(=O)OCC)ncn1-2 [SH-053-2′F—R—CH3]
- number of spontaneously active DA neurons in the ventral tegmental area (VTA) (MAM-treated rats; MAM rats, systemic and infused into ventral HPC): reduces the number of spontaneously active DA neurons in the ventral tegmental area (VTA) of MAM rats to levels observed in saline-treated rats
- locomotor response to amphetamine (MAM-treated rats; MAM-treated rats): reduced
- cortical-evoked responses of HPC neurons (MAM-treated rats; saline-treated and MAM-treated animals): diminished cortical-evoked responses

Compound: CCOC(=O)c1ncn2c1Cn1c(C)nnc1-c1cc(OC)ccc1-2 [ethyl 3-methoxy-7-methyl-9H-benzo[f]imidazo[1,5-a][1,2,4]tri]
- memory performance relative to vehicle control treatment (aged-impaired (AI) rats [2]; 3 mg/kg, four-hour delay RAM, t(7)=4.13, p=0.004, or t(7)=3.08, p=0.018): significantly improved memory performance
- memory performance relative to vehicle control treatment (aged-impaired (AI) rats [2]; 10 mg/kg, four-hour delay RAM, t(7)=2.82, p=0.026): significantly improved memory performance
- effect on binding of Ro 15-4513 in hippocampus (GABAAα5 receptor; 0.01-10 mg/kg, i.v.): reduced Ro 15-4513 binding in hippocampus
- effect on binding/levels of Ro 15-4513 in cerebellum (GABAAα5 receptor; 0.01-10 mg/kg, i.v.): without affecting cerebellum levels of Ro 15-4513
- GABAA α5 receptor occupancy (GABAAα5 receptor; 10 mg/kg, i.v.): > 90%

Compound: Ro 15-4513
- levels of Ro 15-4513 in cerebellum (GABAAα5 receptor; [5]): 0.36 ± 0.02 ng/g
- levels of Ro 15-4513 in hippocampus (GABAAα5 receptor; [5]): 1.93 ± 0.05 ng/g
- levels of Ro 15-4513 in hippocampus compared with cerebellum (GABAAα5 receptor; [5]): > 5 fold
